Each structure is given as a SMILES string. Where “and” joins values, the source holds several entries; their conditions need not be identical. Identical values can stand only once. Bounds are passed on as bounds.

The assay has as its target T1, receptor interacting protein kinase 1 (GST-hRIPK1 (8-327)) (Homo sapiens, UniProt Q13546).
T1 construct: GST-hRIPK1 (8-327) enzyme was generated by Proteros GmbH by Baculovirus expression system
T1 sequence (Q13546 8-327): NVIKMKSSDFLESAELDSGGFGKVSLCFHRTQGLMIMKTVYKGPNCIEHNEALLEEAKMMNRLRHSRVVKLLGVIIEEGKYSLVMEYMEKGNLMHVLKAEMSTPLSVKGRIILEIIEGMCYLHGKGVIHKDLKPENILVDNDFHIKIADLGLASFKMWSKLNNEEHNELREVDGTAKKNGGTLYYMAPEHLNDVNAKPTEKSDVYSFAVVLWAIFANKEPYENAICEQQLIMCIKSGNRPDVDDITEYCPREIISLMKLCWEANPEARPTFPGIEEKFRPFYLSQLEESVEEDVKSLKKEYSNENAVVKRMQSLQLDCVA
The assay is described as follows: Fluorescent Polarization Binding (FP Binding) assay. The note with it: 10 nM GST-hRIPK1 (8-327), 5 nM fluorescent-labeled ligand, 30 min at RT. The essentials: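 Displacement of 5 nM fluorescent ligand from 10 nM GST-hRIPK1 (8-327), 30 min at room temperature in pH 7.5 HEPES buffer, 1% DMSO. Fluorescence polarization read (ex 531/em 595 nm); IC50 fitted from percent inhibition and averaged over at least two independent experiments.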
Take `CC(C)(C(=O)N1OCC[C@H]1c1ccccc1)C(F)(F)F` [Compound 55, 3,3,3-Trifluoro-2,2-dimethyl-1-[(3S)-3-phenyl-1,2-oxazolidin-2-yl]propan-1-one]: the IC50 is < 1 µM.
Consider `CC(C)(CC#N)C(=O)N1OCC[C@H]1c1ccc(F)nc1` [Compound 165, 4-[(3S)-3-(6-fluoropyridin-3-yl)-1,2-oxazolidin-2-yl]-3,3-dimethyl-4-oxobutanenitrile], for which the IC50 is < 1 µM.
On to `CC1(C(=O)N2OCC[C@H]2c2ccc(F)cc2)CN(CC(F)F)C1` [Compound 90, (3S)-2-[1-(2,2-difluoroethyl)-3-methylazetidine-3-carbonyl]-3-(4-fluorophenyl)-1,2-oxazolidine], for which the IC50 is < 1 µM.
As for `COc1cc([C@@H]2CCON2C(=O)C(C)(C)C)ccn1` [Compound 144, 1-[(3S)-3-(2-methoxypyridin-4-yl)-1,2-oxazolidin-2-yl]-2,2-dimethylpropan-1-one], the figure is < 1 µM.
Turning to `CC(C)(C)C(=O)N1OCC[C@H]1c1ccccc1C#N` [Compound 146, 2-[(3S)-2-(2,2-dimethylpropanoyl)-1,2-oxazolidin-3-yl]benzonitrile], the concentration for half-maximal inhibition (IC50) is < 1 µM.
With `CC(C)(C)C(=O)N1OCC[C@H]1c1ccc(F)c(C#N)c1` [Compound 153, 5-[(3S)-2-(2,2-dimethylpropanoyl)-1,2-oxazolidin-3-yl]-2-fluorobenzonitrile], the IC50 is < 1 µM.
As for `CC(C)(CC#N)C(=O)N1OCC[C@H]1c1ccc(F)cc1` [Compound 171, 4-[(3S)-3-(4-fluorophenyl)-1,2-oxazolidin-2-yl]-3,3-dimethyl-4-oxobutanenitrile], the figure is < 1 µM and 0.011 µM; as for `CC(C)(C(=O)N1OCC[C@H]1c1ccc(F)cc1)S(C)(=O)=O` [Compound 194, 1-[(3S)-3-(4-fluorophenyl)-1,2-oxazolidin-2-yl]-2-methanesulfonyl-2-methylpropan-1-one], 1 to 10 µM.
Regarding `CC(C(=O)N1OCC[C@H]1c1ccc(F)nc1)C(F)(F)F` (single isomer, unassigned) [Compound 163], the IC50 is < 1 µM.
With `CC(C)(C)C(=O)N1OCC[C@H]1c1ccnc(C(F)F)c1` [Compound 175, 1-[(3S)-3-[2-(difluoromethyl)pyridin-4-yl]-1,2-oxazolidin-2-yl]-2,2-dimethylpropan-1-one], the concentration for half-maximal inhibition (IC50) is < 1 µM.
Under `CC(C(=O)N1OCC[C@H]1c1ccc(F)nc1)C1CC1` (single isomer, unassigned) [Compound 117] stands < 1 µM; under `CC(C)(C)C(=O)N1OCC[C@H]1c1ccn2nccc2c1` [Compound 132, 2,2-dimethyl-1-[(3S)-3-{pyrazolo[1,5-a]pyridin-5-yl}-1,2-oxazolidin-2-yl]propan-1-one], < 1 µM.
As for `COc1ccc([C@@H]2CCON2C(=O)C(C)(C)C)cn1` [Compound 145, 1-[(3S)-3-(6-methoxypyridin-3-yl)-1,2-oxazolidin-2-yl]-2,2-dimethylpropan-1-one], the half-inhibitory concentration (IC50) is < 1 µM.
Turning to `CC(C(=O)N1OCC[C@H]1c1ccc(F)cc1)C(F)F` (single isomer, unassigned) [Compound 189], the IC50 was < 1 µM.
Turning to `Cc1cnc([C@@H]2CCON2C(=O)C(C)(C)CC#N)cn1` [Compound 104, 3,3-dimethyl-4-[(3S)-3-(5-methylpyrazin-2-yl)-1,2-oxazolidin-2-yl]-4-oxobutanenitrile], the IC50 was < 1 µM.
Consider `CC1(C(=O)N2OCC[C@H]2c2ccc(F)cc2)CC1(F)F` (single isomer, unassigned) [Compound 114], for which the IC50 is < 1 µM.
For the molecule `N#Cc1ccc([C@@H]2CCON2C(=O)C2(C(F)F)CC2)cc1` [Compound 187, 4-[(3S)-2-[1-(difluoromethyl)cyclo-propanecarbonyl]-1,2-oxazolidin-3-yl]benzonitrile], the IC50 is < 1 µM.
Consider `CC1(C(=O)N2OCC[C@H]2c2ccc(F)nc2)CCOC1` (single isomer, unassigned) [Compound 142], for which the half-inhibitory concentration (IC50) was < 1 µM.
For `CC(C)(C(=O)N1OCC[C@H]1c1cccc(C#N)c1)C(F)F` [Compound 239, 3-[(3S)-2-(3,3-difluoro-2,2-dimethylpropanoyl)-1,2-oxazolidin-3-yl]benzonitrile], the half-maximal inhibitory concentration (IC50) is < 1 µM.
As for `[2H]C([2H])([2H])C(C(=O)N1OCC[C@H]1c1ccc(F)nc1)(C([2H])([2H])[2H])C([2H])([2H])[2H]` [Compound 161, 1-[(3S)-3-(6-fluoropyridin-3-yl)-1,2-oxazolidin-2-yl]-2,2-bis(^2H3)methyI(^2H3) propan-1-one], the figure is < 1 µM; as for `Cn1cc([C@@H]2CCON2C(=O)C(C)(C)C(F)F)cn1` [Compound 198, (S)-3,3-difluoro-2,2-dimethyl-1-(3-(1-methyl-1H-pyrazol-4-yl)isoxazolidin-2-yl)propan-1-one], < 1 µM and 0.051 µM.
Regarding `CC1(C(=O)N2OCC[C@H]2c2ccccc2)CC(F)(F)C1` [Compound 57, (3S)-2-(3,3-difluoro-1-methylcyclobutane-carbonyl)-3-phenyl-1,2-oxazolidine], the IC50 is < 1 µM.
On to `CC(CC(F)(F)F)C(=O)N1OCC[C@H]1c1ccc(C#N)cc1` (single isomer, unassigned) [Compound 231], for which the half-inhibitory concentration (IC50) was < 1 µM.
On to `O=C(N1OCC[C@H]1c1ccccc1)C1(C(F)(F)F)CC1` [Compound 54, (3S)-3-Phenyl-2-[1-(trifluoromethyl)cyclo-propanecarbonyl]-1,2-oxazolidine], for which the IC50 is < 1 µM.
Regarding `CC(C)(C)C(=O)N1OCC[C@@H]1c1cccc(F)c1F` [Compound 30, 1-[(3R)-3-(2,3-Difluorophenyl)-12-oxazolidin-2-yl]-2,2-dimethylpropan-1-one], the IC50 was < 1 µM.
On to `O=C(C1CCO1)N1OCC[C@H]1c1ccccc1` (single isomer, unassigned) [Compound 53], for which the IC50 was 1 to 10 µM.
For `CC(C)(C)C(=O)N1OCC[C@H]1c1cc(F)cc(F)c1` (single isomer, unassigned) [Compound 103], the half-maximal inhibitory concentration (IC50) is < 1 µM.
`CC1(C(=O)N2OCC[C@H]2c2ccc(F)cc2)CCOC1` (single isomer, unassigned) [Compound 40]: the IC50 is < 1 µM.
On to `O=C([C@H]1C[C@H](O)C1)N1OCC[C@H]1c1ccccc1` [Compound 75, (1r,3r)-3-[(3S)-3-Phenyl-1,2-oxazolidine-2-carbonyl]cyclobutan-1-ol], for which the IC50 fell in the range of 1 to 10 µM.
As to `CC(C)(C)C(=O)N1OCC[C@H]1c1cccc(F)c1F` [Compound 31, 1-[(3S)-3-(2,3-Difluorophenyl)-1,2-oxazolidin-2-yl]-2,2-dimethylpropan-1-one], the concentration for half-maximal inhibition (IC50) is < 1 µM.
For the molecule `O=C(C1CCO1)N1OCC[C@H]1c1ccccc1` (single isomer, unassigned) [Compound 52], the IC50 was > 10 µM.
As for `C[C@H](O)C(=O)N1OCC[C@H]1c1ccccc1` [Compound 15, (2S)-2-Hydroxy-1-[(3S)-3-phenyl-1,2-oxazolidin-2-yl]propan-1-one], the IC50 was > 10 µM.
With `C[C@@H]1C[C@@H](c2ccc(C#N)cc2)N(C(=O)C(C)(C)C)O1` (single isomer, unassigned) [Compound 100], the IC50 was < 1 µM.
`CC(C)(C)OC(=O)N1CC(C)(C(=O)N2OCC[C@H]2c2ccc(F)cc2)C1` [Compound 44, tert-Butyl 3-[(3S)-3-(4-fluorophenyl)-1,2-oxazolidine-2-carbonyl]-3-methylazetidine-1-carboxylate] had an IC50 of 1 to 10 µM.

What is called IC50 is the concentration that inhibits the measured activity by half. High values mean a need for much substance, low ones inhibition by little substance.

The values are drawn from patent publication US10709692B2, “Isoxazolidine derived inhibitors of receptor interacting protein kinase 1 (RIPK1)” (Denali Therapeutics Inc., priority 2015, dated 2020).
